# Active and inactive are the calls of the source. How the calls were made is not given here.
# Tested on: CCRIS mutagenicity, Ames/micronucleus/aberration tests
# Assay: CCRIS mutagenicity studies
# [1] = Test System: AMES SALMONELLA TYPHIMURIUM, Strain/Indicator: TA98, Metabolic Activation: NONE, Method: STANDARD PLATE
# [2] = Test System: AMES SALMONELLA TYPHIMURIUM, Strain/Indicator: TA100, Metabolic Activation: NONE, Method: STANDARD PLATE
# [3] = Test System: AMES SALMONELLA TYPHIMURIUM, Strain/Indicator: TA1535, Metabolic Activation: NONE, Method: STANDARD PLATE
# [4] = Test System: AMES SALMONELLA TYPHIMURIUM, Strain/Indicator: TA1537, Metabolic Activation: NONE, Method: STANDARD PLATE
# [5] = Test System: AMES SALMONELLA TYPHIMURIUM, Strain/Indicator: TA1538, Metabolic Activation: NONE, Method: STANDARD PLATE
# [6] = Test System: AMES SALMONELLA TYPHIMURIUM, Strain/Indicator: TA97, Metabolic Activation: NONE, Method: STANDARD PLATE
# [7] = Test System: AMES SALMONELLA TYPHIMURIUM, Strain/Indicator: TA100, Metabolic Activation: RAT, LIVER, S-9, AROCLOR 1254, Method: STANDARD PLATE
# [8] = Test System: AMES SALMONELLA TYPHIMURIUM, Strain/Indicator: TA98, Metabolic Activation: HAMSTER, LIVER, S-9, AROCLOR 1254, Method: STANDARD PLATE
# [9] = Test System: AMES SALMONELLA TYPHIMURIUM, Strain/Indicator: TA98, Metabolic Activation: RAT, LIVER, S-9, AROCLOR 1254, Method: STANDARD PLATE
# [10] = Test System: AMES SALMONELLA TYPHIMURIUM, Strain/Indicator: TA1535, Metabolic Activation: RAT, LIVER, S-9, AROCLOR 1254, Method: STANDARD PLATE
structure (smiles),measurement,setting,value
CCn1c2ccccc2c2ccccc21,mutagenic call,"Test System: UDS PRIMARY RAT HEPATOCYTES, Strain/Indicator: THY INCORP, Metabolic Activation: NONE, Method: AUTORADIOGRAPHY",active; positive
Nc1cc(-c2ccncc2)c[nH]c1=O,mutagenic call,"Test System: AMES SALMONELLA TYPHIMURIUM, Strain/Indicator: TA97, Metabolic Activation: NONE",inactive; negative
same,mutagenic call,"Test System: AMES SALMONELLA TYPHIMURIUM, Strain/Indicator: TA97, Metabolic Activation: S-9",inactive; negative
same,mutagenic call,"Test System: AMES SALMONELLA TYPHIMURIUM, Strain/Indicator: TA98, Metabolic Activation: NONE",inactive; negative
same,mutagenic call,[1],inactive; negative
same,mutagenic call,"Test System: AMES SALMONELLA TYPHIMURIUM, Strain/Indicator: TA98, Metabolic Activation: RAT, LIVER, S-9, Method: STANDARD PLATE",inactive; negative
same,mutagenic call,"Test System: AMES SALMONELLA TYPHIMURIUM, Strain/Indicator: TA98, Metabolic Activation: S-9",inactive; negative
same,mutagenic call,[2],inactive; negative
same,mutagenic call,"Test System: AMES SALMONELLA TYPHIMURIUM, Strain/Indicator: TA100, Metabolic Activation: RAT, LIVER, S-9, Method: STANDARD PLATE",inactive; negative
same,mutagenic call,"Test System: AMES SALMONELLA TYPHIMURIUM, Strain/Indicator: TA100, Metabolic Activation: S-9",inactive; negative
same,mutagenic call,"Test System: AMES SALMONELLA TYPHIMURIUM, Strain/Indicator: TA102, Metabolic Activation: NONE",inactive; negative
same,mutagenic call,"Test System: AMES SALMONELLA TYPHIMURIUM, Strain/Indicator: TA102, Metabolic Activation: S-9",inactive; negative
same,mutagenic call,[3],inactive; negative
same,mutagenic call,"Test System: AMES SALMONELLA TYPHIMURIUM, Strain/Indicator: TA1535, Metabolic Activation: RAT, LIVER, S-9, Method: STANDARD PLATE",inactive; negative
same,mutagenic call,[4],inactive; negative
same,mutagenic call,"Test System: AMES SALMONELLA TYPHIMURIUM, Strain/Indicator: TA1537, Metabolic Activation: RAT, LIVER, S-9, Method: STANDARD PLATE",inactive; negative
same,mutagenic call,[5],inactive; negative
same,mutagenic call,"Test System: AMES SALMONELLA TYPHIMURIUM, Strain/Indicator: TA1538, Metabolic Activation: RAT, LIVER, S-9, Method: STANDARD PLATE",inactive; negative
CC1CS(=O)(=O)CCN1/N=C/c1ccc([N+](=O)[O-])o1 (stereo not given),mutagenic call,[6],active; positive
same,mutagenic call,[1],inactive; negative
same,mutagenic call,[2],active; positive
same,mutagenic call,[7],active; positive
same,mutagenic call,"Test System: AMES SALMONELLA TYPHIMURIUM, Strain/Indicator: TA102, Metabolic Activation: NONE, Method: STANDARD PLATE",active; positive
[N-]=[N+]=NC[C@H]1O[C@H](O)[C@H](O)[C@@H](O)[C@H]1O,mutagenic call,[1],inactive; negative
same,mutagenic call,[2],active; positive
ONc1ccc(Cl)c(Cl)c1,mutagenic call,[6],inactive; negative
same,mutagenic call,[1],inactive; negative
same,mutagenic call,[2],inactive; negative
same,mutagenic call,"Test System: AMES SALMONELLA TYPHIMURIUM, Strain/Indicator: TA104, Metabolic Activation: NONE, Method: STANDARD PLATE",inactive; negative
same,mutagenic call,"Test System: CHINESE HAMSTER OVARY, Strain/Indicator: CHO-K1-BH4 (HGPRT), Metabolic Activation: NONE",inactive; negative
COc1cc(CNC(=O)CCCCCCC(C)C)ccc1O,mutagenic call,[8],inactive; negative
same,mutagenic call,[9],inactive; negative
same,mutagenic call,"Test System: AMES SALMONELLA TYPHIMURIUM, Strain/Indicator: TA100, Metabolic Activation: HAMSTER, LIVER, S-9, AROCLOR 1254, Method: STANDARD PLATE",inactive; negative
same,mutagenic call,[2],inactive; negative
same,mutagenic call,[7],inactive; negative
same,mutagenic call,"Test System: AMES SALMONELLA TYPHIMURIUM, Strain/Indicator: TA1535, Metabolic Activation: HAMSTER, LIVER, S-9, AROCLOR 1254, Method: STANDARD PLATE",inactive; negative
same,mutagenic call,[3],inactive; negative
same,mutagenic call,[10],inactive; negative
same,mutagenic call,"Test System: AMES SALMONELLA TYPHIMURIUM, Strain/Indicator: TA1537, Metabolic Activation: HAMSTER, LIVER, S-9, AROCLOR 1254, Method: STANDARD PLATE",inactive; negative
same,mutagenic call,[4],inactive; negative
same,mutagenic call,"Test System: AMES SALMONELLA TYPHIMURIUM, Strain/Indicator: TA1537, Metabolic Activation: RAT, LIVER, S-9, AROCLOR 1254, Method: STANDARD PLATE",inactive; negative
same,mutagenic call,"Test System: AMES SALMONELLA TYPHIMURIUM, Strain/Indicator: TA1538, Metabolic Activation: HAMSTER, LIVER, S-9, AROCLOR 1254, Method: STANDARD PLATE",inactive; negative
same,mutagenic call,[5],inactive; negative
same,mutagenic call,"Test System: AMES SALMONELLA TYPHIMURIUM, Strain/Indicator: TA1538, Metabolic Activation: RAT, LIVER, S-9, AROCLOR 1254, Method: STANDARD PLATE",inactive; negative
Cc1cc(S(=O)(=O)O)c([N+](=O)[O-])cc1[N+](=O)[O-],mutagenic call,"End Point: In vitro chromosomal aberrations, Test System: V79 Chinese hamster fibroblasts, Metabolic Activation: None",inactive; negative
same,mutagenic call,"Test System: Ames Salmonella typhimurium, Strain/Indicator: TA98, Metabolic Activation: None, Method: Standard plate",inactive; negative
same,mutagenic call,"Test System: Ames Salmonella typhimurium, Strain/Indicator: TA98, Metabolic Activation: Rat, Liver, S-9, Method: Standard plate",inactive; negative
same,mutagenic call,"Test System: Ames Salmonella typhimurium, Strain/Indicator: TA100, Metabolic Activation: None, Method: Standard plate",inactive; negative
same,mutagenic call,"Test System: Ames Salmonella typhimurium, Strain/Indicator: TA100, Metabolic Activation: Rat, Liver, S-9, Method: Standard plate",inactive; negative
O=C(O)C1OC1C(=O)O (stereo not given),mutagenic call,[2],inactive; negative
same,mutagenic call,[7],inactive; negative
same,mutagenic call,[3],inactive; negative
same,mutagenic call,[10],inactive; negative
same,mutagenic call,"Test System: UDS RAT HEPATOCYTES, Strain/Indicator: THY INCORP, Metabolic Activation: NONE",inactive; negative
COc1ccc2c(c1)[C@H]1CCCC[C@@H]1[C@H]1O[C@@H]21,mutagenic call,[1],inactive; negative
same,mutagenic call,[2],inactive; negative
CN(C)c1ccc(N=Nc2ccc3ccccc3c2)cc1,mutagenic call,[8],active; positive
same,mutagenic call,"Test System: AMES SALMONELLA TYPHIMURIUM, Strain/Indicator: TA98, Metabolic Activation: HAMSTER, LIVER, S-9, Method: PREINCUBATION (PRIVAL METHOD)",active; positive
same,mutagenic call,"Test System: AMES SALMONELLA TYPHIMURIUM, Strain/Indicator: TA98, Metabolic Activation: RAT, LIVER, S-9, AROCLOR 1254, HAMSTER, LIVER, S-9, AROCLOR 1254, Method: STANDARD PLATE",active; positive
same,mutagenic call,"Test System: AMES SALMONELLA TYPHIMURIUM, Strain/Indicator: TA100, Metabolic Activation: HAMSTER, LIVER, S-9, Method: PREINCUBATION (PRIVAL METHOD)",active; positive
same,mutagenic call,"Test System: AMES SALMONELLA TYPHIMURIUM, Strain/Indicator: TA1538, Metabolic Activation: RAT, LIVER, S-9, AROCLOR 1254, HAMSTER, LIVER, S-9, AROCLOR 1254, Method: STANDARD PLATE",active; positive
same,mutagenic call,"Test System: MOUSE LYMPHOMA, Strain/Indicator: L5178Y (TK+/TK-), Metabolic Activation: RAT, LIVER, S-9, AROCLOR 1254, Method: SUSPENSION/PLATE",active; positive. reevaluation of results: positive
same,mutagenic call,"Test System: Mouse lymphoma, Strain/Indicator: L5178Y (tk+/tk-), Metabolic Activation: None, Method: Suspension/plate",inactive; negative
Cc1cccc2c1C(C)c1ccccc1-2 (stereo not given),mutagenic call,[9],active; positive
same,mutagenic call,[7],active; positive
O=C1C(=O)c2ccccc2-c2ccccc21,mutagenic call,"Test System: AMES SALMONELLA TYPHIMURIUM, Strain/Indicator: TA97A, Metabolic Activation: NONE, Method: PREINCUBATION",inactive; negative
same,mutagenic call,"Test System: AMES SALMONELLA TYPHIMURIUM, Strain/Indicator: TA98, Metabolic Activation: NONE, Method: PREINCUBATION",inactive; negative
same,mutagenic call,"Test System: AMES SALMONELLA TYPHIMURIUM, Strain/Indicator: TA100, Metabolic Activation: NONE, Method: PREINCUBATION",inactive; negative
same,mutagenic call,"Test System: AMES SALMONELLA TYPHIMURIUM, Strain/Indicator: TA102, Metabolic Activation: NONE, Method: PREINCUBATION",inactive; negative
same,mutagenic call,"Test System: AMES SALMONELLA TYPHIMURIUM, Strain/Indicator: TA104, Metabolic Activation: NONE, Method: PREINCUBATION",inactive; negative

# — PubChem BioAssay AID1259407 (Chemical Carcinogenesis Research Information System (CCRIS), 2018)
